In BindingDB's records for doi:10.1111/j.1747-0285.2010.00965.x (Ataturk University, 2010):

Columns and labels:
[1] = molecular target: Carbonic anhydrase 1 (Homo sapiens, UniProt P00915); experiment: Esterase Activity Assay; details: pH 7.4; 25 °C
[2] = molecular target: Carbonic anhydrase 2 (Homo sapiens, UniProt P00918); experiment: Esterase Activity Assay; details: pH 7.4; 25 °C

Chain of Carbonic anhydrase 1 (P00915 whole entry): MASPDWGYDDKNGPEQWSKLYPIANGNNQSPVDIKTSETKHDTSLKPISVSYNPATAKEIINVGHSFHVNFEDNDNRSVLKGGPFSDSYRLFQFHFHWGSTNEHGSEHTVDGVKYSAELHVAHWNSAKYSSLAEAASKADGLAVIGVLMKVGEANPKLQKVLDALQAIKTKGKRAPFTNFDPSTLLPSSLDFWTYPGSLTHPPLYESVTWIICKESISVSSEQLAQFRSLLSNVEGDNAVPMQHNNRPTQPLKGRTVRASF

For O=c1c(O)c(-c2ccc(O)c(O)c2)oc2cc(O)cc(O)c12 [2-(3,4-dihydroxyphenyl)-3,5,7-trihydroxy-chromone;hydrate], the Ki [1] was 99 µM and the Ki [2] was 105 µM.
O=C(O)c1ccc(O)cc1 [4-Hydroxybenzoate, III] was tested, and the Ki [1] was 1060 µM.
Work on O=c1oc2c(O)c(O)cc3c(=O)oc4c(O)c(O)cc1c4c23 [Elagic Acid] yielded a Ki [1] of 207 µM.
For COc1cc(/C=C/C(=O)O)ccc1O [Ferulic acid (M5)], the Ki [1] was 408 µM and the Ki [2] was 210 µM.
O=C(O)c1cc(O)c(O)c(O)c1 [Gallic Acid, F] gave a Ki [1] of 1050 µM and a Ki [2] of 758 µM.
Compound COc1cc(C(=O)O)cc(OC)c1O [Syringic acid] has a Ki [1] of 919 µM and a Ki [2] of 695 µM.
With O=C(O)/C=C/c1ccc(O)cc1 [p-Coumaric Acid] the Ki [1] was 441 µM and the Ki [2] was 537 µM.
